The results in this text go back to patent US20240368150A1 (Hoffmann-La Roche Inc., priority 2021, published 2024).

Experiment [1] deals with primary human T-cells. The experiment is described as follows: Proliferation assay after 5 days (CellTiter-Glo, CD3 stimulation; PBS counter screen). The format is cell-based. Particulars: Homo sapiens, T-cell, 120 h, CD3 stimulation; for Emax: 5 days, normalized to reference compound A1 as stimulator control = 100%, DMSO neutral control, read-out: Emax proliferation (% activation); for EC50: primary human T-cells, CellTiter-Glo after 5 days, EC50 of fitted sigmoidal curve, read-out: Tcell Proliferation CD3 EC50. In outline: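 Proliferation is measured 5 days post-treatment as ATP-dependent luminescence. Flags mark compounds that activated unstimulated cells or harmed viability.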
A general note: ATP-based viability assays read luminescence as a measure of living cells.

Experiment [2] has as its system primary human T-cells.

Read-outs that look alike come from different tables or passages of the source.

`CC(C)(CN)c1nnc(-c2cc3c(cc2F)S(=O)(=O)C[C@H](N)C(=O)N3Cc2ccc(Cl)cc2)o1` [Example 111, (3R)-3-amino-7-[5-(2-amino-1,1-dimethyl-ethyl)-1,3,4-oxadiazol-2-yl]-5-[(4-chlorophenyl)methyl]-8-fluoro-1,1-dioxo-2,3-dihydro-1λ^6,5-benzothiazepin-4-one]: in the experiment on primary human T-cells [1], the Emax is 97% and the EC50 came to 556 nM. Also, the EC50 in the experiment with primary human T-cells [2] was determined as 3130 nM.
Consider `N[C@H]1CS(=O)(=O)c2cc(F)c(-c3nnc(C4(C(F)F)CNC4)o3)cc2N(Cc2ccc(Cl)cc2)C1=O` [Example 112, (3R)-3-amino-5-[(4-chlorophenyl)methyl]-7-[5-[3-(difluoromethyl)azetidin-3-yl]-1,3,4-oxadiazol-2-yl]-8-fluoro-1,1-dioxo-2,3-dihydro-1λ^6,5-benzothiazepin-4-one], for which, in the experiment with primary human T-cells [1], the Emax was 124% and the EC50 was found to be 1050 nM. In the experiment on primary human T-cells [2], this compound returned an EC50 of 3230 nM.
In the case of `CC1(c2nnc(-c3cc4c(cc3F)S(=O)(=O)C[C@H](N)C(=O)N4Cc3ccc(Cl)cc3)o2)CC1` [Example 113, (3R)-3-amino-5-[(4-chlorophenyl)methyl]-8-fluoro-7-[5-(1-methylcyclopropyl)-1,3,4-oxadiazol-2-yl]-1,1-dioxo-2,3-dihydro-1λ^6,5-benzothiazepin-4-one], in the experiment on primary human T-cells [1], the Emax is 106% and the EC50 is 107 nM. Moreover, the EC50 with primary human T-cells [2] was determined as 100 nM.
For the compound `CC(C)N(C)C(=O)c1nnc(-c2cc3c(cc2F)S(=O)(=O)C[C@H](N)C(=O)N3Cc2ccc(Cl)cc2)o1` [Example 114, N-isopropyl-N-methyl-5-[(3R)-3-amino-5-[(4-chlorophenyl)methyl]-8-fluoro-1,1,4-trioxo-2,3-dihydro-1λ^6,5-benzothiazepin-7-yl]-1,3,4-oxadiazole-2-carboxamide], in the experiment with primary human T-cells [1], the Emax is 65% and the EC50 is over 10000 nM. This compound also registered an EC50 in the experiment on primary human T-cells [2] of 756 nM.
For `CC(CO)(CCl)c1nnc(-c2cc3c(cc2F)S(=O)(=O)C[C@H](N)C(=O)N3Cc2ccc(Cl)cc2)o1` (stereo partly drawn) [Example 115, (3R)-3-amino-7-[5-[1-(chloromethyl)-2-hydroxy-1-methyl-ethyl]-1,3,4-oxadiazol-2-yl]-5-[(4-chlorophenyl)methyl]-8-fluoro-1,1-dioxo-2,3-dihydro-1λ^6,5-benzothiazepin-4-one], in that order: 127%, 495 nM and 2210 nM.
On to `NC1CC2(C1)CC(c1nnc(-c3cc4c(cc3F)S(=O)(=O)C[C@H](N)C(=O)N4Cc3ccc(Cl)cc3)o1)C2` (stereo partly drawn) [Example 116, (3R)-3-amino-7-[5-(2-aminospiro[3.3]heptan-6-yl)-1,3,4-oxadiazol-2-yl]-5-[(4-chlorophenyl)methyl]-8-fluoro-1,1-dioxo-2,3-dihydro-1λ^6,5-benzothiazepin-4-one], for which, in the experiment on primary human T-cells [1], the Emax turned out to be 84% and the EC50 came to 4640 nM. Besides, the EC50 in the experiment on primary human T-cells [2] is 7340 nM.
For `N[C@H]1CS(=O)(=O)c2cc(F)c(-c3nnc(C(=O)N4CCC(F)(F)C4)o3)cc2N(Cc2ccc(Cl)cc2)C1=O` [Example 117, (3R)-3-amino-5-[(4-chlorophenyl)methyl]-7-[5-(3,3-difluoropyrrolidine-1-carbonyl)-1,3,4-oxadiazol-2-yl]-8-fluoro-1,1-dioxo-2,3-dihydro-1λ^6,5-benzothiazepin-4-one], in that order: 68%, 5020 nM and 3570 nM.
For `N#CC1(c2nnc(-c3cc4c(cc3F)S(=O)(=O)C[C@H](N)C(=O)N4Cc3ccc(Cl)cc3)o2)CC1` [Example 118, 1-[5-[(3R)-3-amino-5-[(4-chlorophenyl)methyl]-8-fluoro-1,1,4-trioxo-2,3-dihydro-1λ^6,5-benzothiazepin-7-yl]-1,3,4-oxadiazol-2-yl]cyclopropanecarbonitrile], in that order: 99%, 669 nM and 228 nM.
With `CC(C)(O)c1nnc(-c2cc3c(cc2F)S(=O)(=O)C[C@H](N)C(=O)N3Cc2ccc(Cl)cc2)o1` [Example 119, (3R)-3-amino-5-[(4-chlorophenyl)methyl]-8-fluoro-7-[5-(1-hydroxy-1-methyl-ethyl)-1,3,4-oxadiazol-2-yl]-1,1-dioxo-2,3-dihydro-1λ^6,5-benzothiazepin-4-one], in the experiment with primary human T-cells [1], the Emax amounted to 97% and the EC50 came to 730 nM. The compound further displayed an EC50 with primary human T-cells [2] of 1210 nM.
As to `COC(=O)N1CC2(c3nnc(-c4cc5c(cc4F)S(=O)(=O)C[C@H](N)C(=O)N5Cc4ccc(Cl)cc4)o3)CC1CO2` (stereo partly drawn) [Example 120, methyl 1-[5-[(3R)-3-amino-5-[(4-chlorophenyl)methyl]-8-fluoro-1,1,4-trioxo-2,3-dihydro-1λ^6,5-benzothiazepin-7-yl]-1,3,4-oxadiazol-2-yl]-2-oxa-5-azabicyclo[2.2.1]heptane-5-carboxylate], the Emax in the experiment with primary human T-cells [1] amounted to 96%. The EC50 in the experiment with primary human T-cells [1] came to 129 nM; in the experiment on primary human T-cells [2], 256 nM.
For `N[C@H]1CS(=O)(=O)c2cc(F)c(-c3nnc(C45CNCCC4C5)o3)cc2N(Cc2ccc(Cl)cc2)C1=O` (stereo partly drawn) [Example 121, (3R)-3-amino-7-[5-(3-azabicyclo[4.1.0]heptan-1-yl)-1,3,4-oxadiazol-2-yl]-5-[(4-chlorophenyl)methyl]-8-fluoro-1,1-dioxo-2,3-dihydro-1λ^6,5-benzothiazepin-4-one], in the experiment on primary human T-cells [1], the Emax was 72% and the EC50 is 4760 nM. In addition, the EC50 in the experiment with primary human T-cells [2] stood at 6370 nM.
For `CC(C)(C)c1nnc(-c2ccc3c(c2)N(Cc2ccc(S(=O)(=O)C(F)(F)F)cc2)C(=O)[C@@H](N)CS3(=O)=O)o1` [Example 123, (3R)-3-amino-7-(5-tert-butyl-1,3,4-oxadiazol-2-yl)-1,1-dioxo-5-[[4-(trifluoromethylsulfonyl)phenyl]methyl]-2,3-dihydro-1λ^6,5-benzothiazepin-4-one], in that order: 82%, over 2730 nM and 1650 nM.
For `CN(C)C(=O)C(C)(C)c1nnc(-c2cc3c(cc2F)S(=O)(=O)C[C@H](N)C(=O)N3Cc2ccc(Cl)cc2)o1` [Example 125, N,N,2-trimethyl-2-[5-[(3R)-3-amino-5-[(4-chlorophenyl)methyl]-8-fluoro-1,1,4-trioxo-2,3-dihydro-1λ^6,5-benzothiazepin-7-yl]-1,3,4-oxadiazol-2-yl]propanamide] the same measures were 112%, 587 nM and 1440 nM.
For `N[C@H]1CS(=O)(=O)c2cc(F)c(-c3nnc(C4(C(F)(F)F)CC4)o3)cc2N(Cc2ccc(Cl)cc2)C1=O` [Example 126, (3R)-3-amino-5-[(4-chlorophenyl)methyl]-8-fluoro-1,1-dioxo-7-[5-[1-(trifluoromethyl)cyclopropyl]-1,3,4-oxadiazol-2-yl]-2,3-dihydro-1λ^6,5-benzothiazepin-4-one], in that order: 135%, 113 nM and 62.4 nM.
As for `CC(N)(c1nnc(-c2cc3c(cc2F)S(=O)(=O)C[C@H](N)C(=O)N3Cc2ccc(Cl)cc2)o1)C(F)(F)F` (stereo partly drawn) [Example 127, (3R)-3-amino-7-[5-(1-amino-2,2,2-trifluoro-1-methyl-ethyl)-1,3,4-oxadiazol-2-yl]-5-[(4-chlorophenyl)methyl]-8-fluoro-1,1-dioxo-2,3-dihydro-1λ^6,5-benzothiazepin-4-one], the Emax in the experiment on primary human T-cells [1] is 110%. Moreover, the figures for the EC50 in the experiment on primary human T-cells [1] and in the experiment on primary human T-cells [2] were 181 nM and 232 nM, respectively.
For `CC(C)(c1nnc(-c2cc3c(cc2F)S(=O)(=O)C[C@H](N)C(=O)N3Cc2ccc(Cl)cc2)o1)N1CCCC1` [Example 128, (3R)-3-amino-5-[(4-chlorophenyl)methyl]-8-fluoro-7-[5-(1-methyl-1-pyrrolidin-1-yl-ethyl)-1,3,4-oxadiazol-2-yl]-1,1-dioxo-2,3-dihydro-1λ^6,5-benzothiazepin-4-one], in the experiment on primary human T-cells [1], the Emax was 99% and the EC50 is 534 nM. In the experiment on primary human T-cells [2], the EC50 came out at 1240 nM.
For `Cc1ccc(-c2nnc(-c3cc4c(cc3F)S(=O)(=O)C[C@H](N)C(=O)N4Cc3ccc(Cl)cc3)o2)nc1` [Example 129, (3R)-3-amino-5-[(4-chlorophenyl)methyl]-8-fluoro-7-[5-(5-methyl-2-pyridyl)-1,3,4-oxadiazol-2-yl]-1,1-dioxo-2,3-dihydro-1λ^6,5-benzothiazepin-4-one] the same measures were 106%, 1420 nM and 1900 nM.
For `Cc1cc(C)c(-c2nnc(-c3cc4c(cc3F)S(=O)(=O)C[C@H](N)C(=O)N4Cc3ccc(Cl)cc3)o2)cn1` [Example 130, (3R)-3-amino-5-[(4-chlorophenyl)methyl]-7-[5-(4,6-dimethyl-3-pyridyl)-1,3,4-oxadiazol-2-yl]-8-fluoro-1,1-dioxo-2,3-dihydro-1λ^6,5-benzothiazepin-4-one], in that order: 114%, 159 nM and 284 nM.
`Cc1nc(F)ccc1-c1nnc(-c2cc3c(cc2F)S(=O)(=O)C[C@H](N)C(=O)N3Cc2ccc(Cl)cc2)o1` [Example 131, (3R)-3-amino-5-[(4-chlorophenyl)methyl]-8-fluoro-7-[5-(6-fluoro-2-methyl-3-pyridyl)-1,3,4-oxadiazol-2-yl]-1,1-dioxo-2,3-dihydro-1λ^6,5-benzothiazepin-4-one]: in the experiment on primary human T-cells [1], the Emax amounted to 192% and the EC50 was determined as 347 nM. The compound further registered an EC50 in the experiment with primary human T-cells [2] of 376 nM.
For `COC(=O)N1CCC(OC)(c2nnc(-c3cc4c(cc3F)S(=O)(=O)C[C@H](N)C(=O)N4Cc3ccc(Cl)cc3)o2)CC1` [Example 132, methyl 4-methoxy-4-[5-[(3R)-3-amino-5-[(4-chlorophenyl)methyl]-8-fluoro-1,1,4-trioxo-2,3-dihydro-1λ^6,5-benzothiazepin-7-yl]-1,3,4-oxadiazol-2-yl]-piperidine-1-carboxylate] the same measures were 97%, 150 nM and 1950 nM.
